Assay results from EP0048159A2, “Novel carboxyalkyl peptides and thioethers and ethers of peptides as antihypertensive agents” (UNIVERSITY OF MIAMI, priority 1980, dated 1982).

Tests used:
Human plasma ACE = biological target: T1, Human plasma ACE (Homo sapiens, UniProt P12821); test: Inhibitory potency in vitro: ACE assay with [3H]hippuryl-His-Leu substrate; assay type: biochemical; settings: hippuryl-His-Leu 1 x 10^-4 M, 0.05 M Hepes buffer pH 8.0, 15 minutes at 37°C, read-out: I50
T1 construct: Human plasma ACE was assayed in 0.05 M Hepes buffer, pH 8.0; from tissue; host or cells: human plasma
T1 sequence (P12821 30-1232 limits assumed): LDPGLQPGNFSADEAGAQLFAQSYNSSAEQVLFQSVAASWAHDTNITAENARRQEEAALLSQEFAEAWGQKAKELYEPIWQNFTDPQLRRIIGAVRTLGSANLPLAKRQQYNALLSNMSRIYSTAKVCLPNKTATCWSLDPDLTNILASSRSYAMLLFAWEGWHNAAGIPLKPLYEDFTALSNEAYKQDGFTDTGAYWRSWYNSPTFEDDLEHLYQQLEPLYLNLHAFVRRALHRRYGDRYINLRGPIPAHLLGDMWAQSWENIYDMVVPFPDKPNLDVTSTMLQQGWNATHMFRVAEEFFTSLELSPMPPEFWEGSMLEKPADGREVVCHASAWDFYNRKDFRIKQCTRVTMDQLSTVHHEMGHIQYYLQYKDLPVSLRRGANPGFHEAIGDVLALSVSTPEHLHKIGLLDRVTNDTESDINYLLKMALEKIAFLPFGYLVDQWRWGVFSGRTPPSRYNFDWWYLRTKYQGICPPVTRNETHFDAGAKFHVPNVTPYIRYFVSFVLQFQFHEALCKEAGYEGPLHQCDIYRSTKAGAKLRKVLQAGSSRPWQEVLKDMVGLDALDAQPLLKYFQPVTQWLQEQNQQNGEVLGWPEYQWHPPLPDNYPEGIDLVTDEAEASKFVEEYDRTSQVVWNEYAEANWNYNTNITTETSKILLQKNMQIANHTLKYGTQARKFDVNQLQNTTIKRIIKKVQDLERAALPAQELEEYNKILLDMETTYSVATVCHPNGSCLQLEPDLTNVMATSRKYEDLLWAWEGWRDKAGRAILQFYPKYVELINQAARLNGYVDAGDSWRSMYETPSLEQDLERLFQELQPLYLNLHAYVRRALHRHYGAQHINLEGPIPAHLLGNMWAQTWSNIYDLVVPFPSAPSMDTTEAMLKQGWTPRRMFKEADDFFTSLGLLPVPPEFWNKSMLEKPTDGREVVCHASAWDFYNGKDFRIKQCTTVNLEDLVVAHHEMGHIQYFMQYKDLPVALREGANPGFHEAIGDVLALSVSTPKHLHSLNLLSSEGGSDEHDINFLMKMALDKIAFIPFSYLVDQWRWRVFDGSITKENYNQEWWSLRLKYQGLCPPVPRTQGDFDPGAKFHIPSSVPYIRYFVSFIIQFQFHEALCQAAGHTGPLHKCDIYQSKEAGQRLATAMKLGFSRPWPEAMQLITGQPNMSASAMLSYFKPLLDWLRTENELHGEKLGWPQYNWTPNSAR
Method: The inhibitory potency of several compounds in vitro was measured in the following assay. Human plasma ACE was assayed in 0.05 M Hepes buffer, pH 8.0 containing 0.1 M NaCl and 0.75 M Na2SO4. The substrate employed was hippuryl-His-Leu at a final concentration-of 1 x 10^-4 M, (Km = 2 x 10^-4 M), together with about 130,000 cpm/50 µl of [^3Hlhippuryl-His-Leu (25 Ci/mmole). Enzyme was diluted in the above buffer such that 40 ul of buffered enzyme was capable of hydrolyzing 13% of substrate in a 15 minute incubation at 37°C. To initiate the assay, 40 µl of enzyme and 10 µl of buffer or inhibitor dissolved in buffer were preincubated for two minutes at 37°C. Substrate, 50 µl, was then added to initiate reaction and the solution was incubated for 15 minutes at 37°C. To terminate the reaction, 1 ml of 0:1 M HC1 was added, following which 1 ml of ethyl acetate was added. The mixture was
An aliquot, 500 ul. of the ethyl acetate layer was transferred to a liquid scintillation vial containing 10 ml of Riafluor, trademark New England Nuclear Corporation, Boston, Massachusetts. For determination of I50 values, enzyme activity in the presence of inhibitor at a series of different concentrations was compared to activity in the absence of inhibitor. A plot of log inhibitor concentration versus percent inhibition yielded the I50 value; the concentration of inhibitor required to reduce enzymic activity by 50%.

[1] = Loss of activity of aqueous solution on standing under ambient conditions; assay type: physicochemical; settings: fresh aqueous solution, 1 mg per ml, pH of about 8, standing for as little as 30 minutes
From the text: In vitro study of the mechanism by which SQ14225 and its analogs act to inhibit ACE has been somewhat hampered by the instability of these molecules under ambient conditions.

Rats = test: Intravenous effectiveness: blood pressure response to angiotensin I in anesthetized rats; assay type: in vivo; settings: 20 µmole/kg intravenously
Method: Rats (190-290 g body weight) were fasted overnight and then anesthetized with intraperitoneal pentobarbital, 50-60 mg/kg. Tracheostomy was performed and the animals were ventilated mechanically. A cannula was inserted into a femoral vein for injection of angiotensin I, and a second cannula was inserted into a common carotid artery for direct measurement of arterial blood pressure. Heparin, 1,000 units, was injected via the femoral vein to prevent coagulation. Blood pressure was measured with a pressure transducer connected to a polygraph. The rats were injected with […] of angiotensin I in 20 pl of 0.9 g % NaCl; an amount of angiotensin I sufficient to raise mean arterial blood pressure by approximately 40 mm Hg. After the responsiveness of a given rat to angiotensin I was established, the named compound at 20 µmole/kg (drug dissolved in 0.15 ml of H20 plus 10 µl of 1 N NaHC03), was given intravenously. At timed intervals, the effects of 400 ng/kg of angiotensin I on mean arterial blood pressure were tested.

IC50 (Human plasma ACE) | SMILES | also measured
400 nM | CC(SC(C)C(=O)N1CCC[C@H]1C(=O)O)C(=O)O (stereo partly drawn) [N-[2-(1-carboxyethylthio)-propanoyl]-L-proline] | 
 | C[C@H](CS)C(=O)N1CCC[C@H]1C(=O)O [SQ14225] | activity of aqueous solution upon standing [1]: substantially less active
1500 nM | CC(SC[C@@H](C)C(=O)N1CCC[C@H]1C(=O)O)C(=O)O (stereo partly drawn) [N-[3-(1-carboxyethylthio)-2-D-methylpropanoyl]-L-proline] | Blood Pressure Reponse to 400 ng/kg of Angiotensin I (% of Control) (Rats; 8 minutes after IV administration): 62.5 % of Control; Blood Pressure Reponse to 400 ng/kg of Angiotensin I (% of Control) (Rats; 15 minutes after IV administration): 37.5 % of Control; Blood Pressure Reponse to 400 ng/kg of Angiotensin I (% of Control) (Rats; 21 minutes after IV administration): 37.5 % of Control; Blood Pressure Reponse to 400 ng/kg of Angiotensin I (% of Control) (Rats; +2 minutes after IV administration): 67.5 % of Control
130 nM | CC1CC(SC(C)C(=O)N2CCC[C@H]2C(=O)O)C(=O)O1 (stereo partly drawn) [N-[2-(tetrahydro-5-methyl-2-furanone-3-thio)-propanoyl]-L-proline] | 
60 nM | CCOC(=O)C(C)N[C@@H](C)C(=O)N1CCC[C@H]1C(=O)O (stereo partly drawn) [N-(1-ethoxycarbonylethyl)-L-alanyl-L-proline] | 
30 nM | CC(O)CC(SC(C)C(=O)N1CCC[C@H]1C(=O)O)C(=O)O (stereo partly drawn) [N-[2-(1-carboxy-3-hydroxy-butylthio)-propanoyl]-L-proline] | 
8 nM | CC(N[C@@H](C)C(=O)N1CCC[C@H]1C(=O)O)C(=O)O (stereo partly drawn) [N-(1-carboxyethyl)-L-alanyl-L-proline, reference compound] | 
